Results published in the kinase profiling compilation of Christmann-Franck et al. (2016).

Assays:
Assay in all cases: radiometric filter-binding kinase assay, Kinase HotSpot
Conditions in all cases: compound 0.5 µM; ATP 10 µM
FGFR2 (human) = FGFR2 (human) (UniProt P21802)
BTK (human) = BTK (human) (UniProt Q06187)
NEK4 (human) = NEK4 (human) (UniProt P51957)
PAK1 (human) = PAK1 (human) (UniProt Q13153)
PDPK1 (human) = PDPK1 (human) (UniProt O15530)
NEK7 (human) = NEK7 (human) (UniProt Q8TDX7)
STK24 (human) = STK24 (human) (UniProt Q9Y6E0)
DSTYK (human) = DSTYK (human) (UniProt Q6XUX3)
FGFR4 (human) = FGFR4 (human) (UniProt P22455)
FGFR4 (human), sequence (P22455 whole entry, looked up): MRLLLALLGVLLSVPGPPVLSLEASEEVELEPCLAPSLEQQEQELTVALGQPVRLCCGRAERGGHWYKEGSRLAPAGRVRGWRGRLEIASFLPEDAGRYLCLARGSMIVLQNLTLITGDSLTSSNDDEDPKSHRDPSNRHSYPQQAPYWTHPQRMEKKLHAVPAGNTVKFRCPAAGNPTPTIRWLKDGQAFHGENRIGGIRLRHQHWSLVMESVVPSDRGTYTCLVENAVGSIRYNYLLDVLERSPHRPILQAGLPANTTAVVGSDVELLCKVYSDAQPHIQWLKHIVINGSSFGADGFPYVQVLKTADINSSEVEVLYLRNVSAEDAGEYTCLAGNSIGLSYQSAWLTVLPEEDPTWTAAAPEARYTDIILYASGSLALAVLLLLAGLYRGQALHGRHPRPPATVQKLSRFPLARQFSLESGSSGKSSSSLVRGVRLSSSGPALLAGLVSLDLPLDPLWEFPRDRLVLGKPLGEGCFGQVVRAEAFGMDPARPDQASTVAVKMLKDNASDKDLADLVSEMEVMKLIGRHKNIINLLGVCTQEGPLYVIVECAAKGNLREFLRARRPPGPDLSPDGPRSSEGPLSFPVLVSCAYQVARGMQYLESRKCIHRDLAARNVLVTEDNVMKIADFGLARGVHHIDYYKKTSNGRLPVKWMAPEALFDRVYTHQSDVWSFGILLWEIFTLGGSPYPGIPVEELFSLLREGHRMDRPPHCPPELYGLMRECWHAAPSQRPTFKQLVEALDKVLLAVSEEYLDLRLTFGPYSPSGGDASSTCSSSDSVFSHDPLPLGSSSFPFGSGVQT

ULK1 (human) = ULK1 (human) (UniProt O75385)
WEE1 (human) = WEE1 (human) (UniProt P30291)
ROCK2 (human) = ROCK2 (human) (UniProt O75116)
ROCK2 (human), sequence (O75116 whole entry, looked up): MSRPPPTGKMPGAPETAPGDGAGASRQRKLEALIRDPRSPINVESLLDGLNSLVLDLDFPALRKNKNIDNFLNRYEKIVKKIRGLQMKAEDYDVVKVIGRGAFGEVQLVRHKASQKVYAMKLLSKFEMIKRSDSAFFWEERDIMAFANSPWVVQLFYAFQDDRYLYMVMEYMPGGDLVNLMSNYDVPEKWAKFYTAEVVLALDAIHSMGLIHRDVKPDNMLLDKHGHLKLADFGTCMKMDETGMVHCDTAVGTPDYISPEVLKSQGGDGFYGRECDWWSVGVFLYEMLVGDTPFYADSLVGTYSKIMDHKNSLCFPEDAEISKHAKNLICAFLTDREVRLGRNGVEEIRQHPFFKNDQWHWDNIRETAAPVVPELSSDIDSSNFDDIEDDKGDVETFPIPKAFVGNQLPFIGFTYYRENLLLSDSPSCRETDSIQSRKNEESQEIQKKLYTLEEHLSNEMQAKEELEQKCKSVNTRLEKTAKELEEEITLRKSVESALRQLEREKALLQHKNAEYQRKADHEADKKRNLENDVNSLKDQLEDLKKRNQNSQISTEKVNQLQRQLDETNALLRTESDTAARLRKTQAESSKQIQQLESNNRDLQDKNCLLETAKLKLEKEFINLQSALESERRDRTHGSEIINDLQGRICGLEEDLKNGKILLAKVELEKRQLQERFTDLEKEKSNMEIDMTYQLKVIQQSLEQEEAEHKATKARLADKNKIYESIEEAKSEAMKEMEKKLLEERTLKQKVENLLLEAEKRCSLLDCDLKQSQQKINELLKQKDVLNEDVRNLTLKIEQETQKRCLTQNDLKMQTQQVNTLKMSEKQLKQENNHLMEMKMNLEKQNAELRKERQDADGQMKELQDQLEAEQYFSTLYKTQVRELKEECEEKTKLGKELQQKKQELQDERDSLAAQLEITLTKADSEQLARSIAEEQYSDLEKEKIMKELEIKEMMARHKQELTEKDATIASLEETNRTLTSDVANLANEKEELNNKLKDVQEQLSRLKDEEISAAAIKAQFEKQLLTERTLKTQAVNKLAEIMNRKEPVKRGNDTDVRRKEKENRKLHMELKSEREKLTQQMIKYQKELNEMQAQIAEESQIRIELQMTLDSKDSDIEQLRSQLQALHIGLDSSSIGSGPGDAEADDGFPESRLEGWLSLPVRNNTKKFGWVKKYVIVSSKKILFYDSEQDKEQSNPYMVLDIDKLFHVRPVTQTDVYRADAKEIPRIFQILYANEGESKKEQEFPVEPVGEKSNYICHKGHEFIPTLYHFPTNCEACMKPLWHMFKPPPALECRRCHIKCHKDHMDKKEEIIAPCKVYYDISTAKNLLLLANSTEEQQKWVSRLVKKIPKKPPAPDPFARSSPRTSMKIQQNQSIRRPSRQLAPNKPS

MST1R (human) = MST1R (human) (UniProt Q04912)
MST1R (human), sequence (Q04912 whole entry, looked up): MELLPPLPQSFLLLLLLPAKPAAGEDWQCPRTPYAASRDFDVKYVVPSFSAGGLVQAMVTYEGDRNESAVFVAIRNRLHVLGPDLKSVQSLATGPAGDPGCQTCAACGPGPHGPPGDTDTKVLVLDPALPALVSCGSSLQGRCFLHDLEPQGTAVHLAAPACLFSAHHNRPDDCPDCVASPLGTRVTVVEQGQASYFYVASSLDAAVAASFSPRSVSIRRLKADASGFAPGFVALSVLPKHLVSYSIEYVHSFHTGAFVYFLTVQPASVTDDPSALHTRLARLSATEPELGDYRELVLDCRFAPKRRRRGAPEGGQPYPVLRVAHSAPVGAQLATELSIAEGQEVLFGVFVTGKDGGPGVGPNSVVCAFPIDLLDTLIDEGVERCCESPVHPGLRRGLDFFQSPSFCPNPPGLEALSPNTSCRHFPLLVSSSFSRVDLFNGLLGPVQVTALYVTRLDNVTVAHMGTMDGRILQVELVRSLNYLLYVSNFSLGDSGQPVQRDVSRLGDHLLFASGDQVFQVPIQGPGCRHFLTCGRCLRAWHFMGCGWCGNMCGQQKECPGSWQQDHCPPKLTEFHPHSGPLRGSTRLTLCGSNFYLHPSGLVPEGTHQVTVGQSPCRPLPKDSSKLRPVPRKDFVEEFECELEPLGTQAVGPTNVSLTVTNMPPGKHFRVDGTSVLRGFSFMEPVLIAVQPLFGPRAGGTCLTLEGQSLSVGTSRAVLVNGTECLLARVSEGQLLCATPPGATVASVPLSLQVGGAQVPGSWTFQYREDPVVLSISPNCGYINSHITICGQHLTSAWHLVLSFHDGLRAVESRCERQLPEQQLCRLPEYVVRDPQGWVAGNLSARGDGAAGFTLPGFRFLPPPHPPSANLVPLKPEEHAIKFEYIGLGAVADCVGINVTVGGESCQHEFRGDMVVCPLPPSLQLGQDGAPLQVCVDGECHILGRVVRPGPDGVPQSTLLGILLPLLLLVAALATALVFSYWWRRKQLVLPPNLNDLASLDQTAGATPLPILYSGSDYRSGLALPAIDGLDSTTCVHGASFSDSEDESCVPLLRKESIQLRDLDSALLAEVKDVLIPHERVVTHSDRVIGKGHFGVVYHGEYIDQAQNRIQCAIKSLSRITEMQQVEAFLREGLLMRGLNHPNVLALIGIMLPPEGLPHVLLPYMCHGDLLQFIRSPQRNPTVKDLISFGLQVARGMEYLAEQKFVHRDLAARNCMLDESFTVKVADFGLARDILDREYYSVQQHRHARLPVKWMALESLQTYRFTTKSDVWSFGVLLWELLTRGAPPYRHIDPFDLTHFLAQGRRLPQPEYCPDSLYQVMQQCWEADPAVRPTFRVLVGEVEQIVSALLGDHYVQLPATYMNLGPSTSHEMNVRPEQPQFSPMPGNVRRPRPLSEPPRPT

OXSR1 (human) = OXSR1 (human) (UniProt O95747)
MAP3K5 (human) = MAP3K5 (human) (UniProt Q99683)
CLK4 (human) = CLK4 (human) (UniProt Q9HAZ1)
MAPK1 (human) = MAPK1 (human) (UniProt P28482)
MAPKAPK2 (human) = MAPKAPK2 (human) (UniProt P49137)
MAP4K2 (human) = MAP4K2 (human) (UniProt Q12851)
HIPK1 (human) = HIPK1 (human) (UniProt Q86Z02)
RPS6KA5 KD2 (human) = RPS6KA5 KD2 (human) (UniProt O75582)
ROS1 (human) = ROS1 (human) (UniProt P08922)
TAOK3 (human) = TAOK3 (human) (UniProt Q9H2K8)
ACVR1 (human) = ACVR1 (human) (UniProt Q04771)
AKT1 (human) = AKT1 (human) (UniProt P31749)
PRKD3 (human) = PRKD3 (human) (UniProt O94806)
TAOK2 (human) = TAOK2 (human) (UniProt Q9UL54)
IKBKB (human) = IKBKB (human) (UniProt O14920)
CHEK1 (human) = CHEK1 (human) (UniProt O14757)
ZAP70 (human) = ZAP70 (human) (UniProt P43403)
ZAP70 (human), sequence (P43403 whole entry, looked up): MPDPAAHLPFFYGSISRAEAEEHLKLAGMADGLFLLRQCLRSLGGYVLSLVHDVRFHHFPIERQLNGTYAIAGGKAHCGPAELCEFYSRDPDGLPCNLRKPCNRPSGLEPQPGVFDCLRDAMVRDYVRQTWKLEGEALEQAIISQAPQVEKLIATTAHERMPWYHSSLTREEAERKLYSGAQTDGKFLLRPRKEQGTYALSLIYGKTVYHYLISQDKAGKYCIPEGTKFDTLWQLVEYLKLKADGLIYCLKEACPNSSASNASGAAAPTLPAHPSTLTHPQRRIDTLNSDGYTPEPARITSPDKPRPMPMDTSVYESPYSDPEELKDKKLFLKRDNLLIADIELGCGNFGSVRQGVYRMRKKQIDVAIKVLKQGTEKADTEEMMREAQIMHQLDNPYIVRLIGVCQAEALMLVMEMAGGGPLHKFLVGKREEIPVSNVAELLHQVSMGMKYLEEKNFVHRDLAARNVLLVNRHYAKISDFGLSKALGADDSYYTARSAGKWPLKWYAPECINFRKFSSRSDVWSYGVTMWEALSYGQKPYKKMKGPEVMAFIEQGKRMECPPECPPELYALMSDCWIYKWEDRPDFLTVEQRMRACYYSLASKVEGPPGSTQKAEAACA

STK3 (human) = STK3 (human) (UniProt Q13188)
CSNK2A1 (human) = CSNK2A1 (human) (UniProt P68400)
EPHA7 (human) = EPHA7 (human) (UniProt Q15375)
HIPK4 (human) = HIPK4 (human) (UniProt Q8NE63)
CAMKK1 (human) = CAMKK1 (human) (UniProt Q8N5S9)
JAK3 JH1 JH2 (human) = JAK3 JH1 JH2 (human) (UniProt P52333)
PIM3 (human) = PIM3 (human) (UniProt Q86V86)
PTK6 (human) = PTK6 (human) (UniProt Q13882)
EPHA4 (human) = EPHA4 (human) (UniProt P54764)
CDK1 CCNB1 (human) = CDK1 CCNB1 (human) (UniProt P06493+P14635)
TEK (human) = TEK (human) (UniProt Q02763)

PDPK1 (human), sequence (O15530 whole entry, looked up): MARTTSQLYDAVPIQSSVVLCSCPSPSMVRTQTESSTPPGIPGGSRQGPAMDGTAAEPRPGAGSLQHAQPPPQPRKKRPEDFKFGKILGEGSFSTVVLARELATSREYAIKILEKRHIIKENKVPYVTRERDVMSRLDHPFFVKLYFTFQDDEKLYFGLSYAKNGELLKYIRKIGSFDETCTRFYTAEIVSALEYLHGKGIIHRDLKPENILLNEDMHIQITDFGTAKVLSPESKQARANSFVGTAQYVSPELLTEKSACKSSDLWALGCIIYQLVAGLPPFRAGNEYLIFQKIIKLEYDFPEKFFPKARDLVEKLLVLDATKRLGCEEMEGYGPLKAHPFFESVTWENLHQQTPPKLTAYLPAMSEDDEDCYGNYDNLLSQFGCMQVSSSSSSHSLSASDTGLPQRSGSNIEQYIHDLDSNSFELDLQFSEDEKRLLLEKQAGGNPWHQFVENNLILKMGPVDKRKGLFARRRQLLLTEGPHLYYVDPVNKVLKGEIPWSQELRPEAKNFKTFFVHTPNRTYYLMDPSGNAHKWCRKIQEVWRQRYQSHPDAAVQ
NEK7 (human), sequence (Q8TDX7 whole entry, looked up): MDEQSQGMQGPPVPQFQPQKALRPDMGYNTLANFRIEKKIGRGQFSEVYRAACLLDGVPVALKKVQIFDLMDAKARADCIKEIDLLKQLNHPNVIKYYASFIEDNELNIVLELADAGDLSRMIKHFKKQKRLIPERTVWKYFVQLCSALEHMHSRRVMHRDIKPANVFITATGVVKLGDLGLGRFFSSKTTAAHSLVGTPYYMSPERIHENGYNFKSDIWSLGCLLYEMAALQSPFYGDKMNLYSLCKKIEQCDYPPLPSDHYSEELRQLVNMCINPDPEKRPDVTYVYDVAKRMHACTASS

COc1cc2ncnc(Nc3ccc(F)c(Cl)c3)c2cc1OCCCN1CCOCC1
residual activity (FGFR2 (human)): 98.7%
residual activity (BTK (human)): 60.6%
residual activity (NEK4 (human)): 103%
residual activity (PAK1 (human)): 104%
residual activity (PDPK1 (human)): 88.2%
residual activity (NEK7 (human)): 96.9%
residual activity (STK24 (human)): 102%
residual activity (DSTYK (human)): 101%
residual activity (FGFR4 (human)): 92.4%
residual activity (ULK1 (human)): 93%
residual activity (WEE1 (human)): 93.8%
residual activity (ROCK2 (human)): 90.8%
residual activity (MST1R (human)): 97.7%
residual activity (OXSR1 (human)): 101%
residual activity (MAP3K5 (human)): 103%
residual activity (CLK4 (human)): 107%
residual activity (MAPK1 (human)): 103%
residual activity (MAPKAPK2 (human)): 97.5%
residual activity (MAP4K2 (human)): 104%
residual activity (HIPK1 (human)): 97.6%
residual activity (RPS6KA5 KD2 (human)): 100%
residual activity (ROS1 (human)): 92.3%
residual activity (TAOK3 (human)): 99.5%
residual activity (ACVR1 (human)): 106%
residual activity (AKT1 (human)): 94.1%
residual activity (PRKD3 (human)): 76.3%
residual activity (TAOK2 (human)): 106%
residual activity (IKBKB (human)): 86.5%
residual activity (CHEK1 (human)): 95.3%
residual activity (ZAP70 (human)): 96.5%
residual activity (STK3 (human)): 93.6%
residual activity (CSNK2A1 (human)): 114%
residual activity (EPHA7 (human)): 74.3%
residual activity (HIPK4 (human)): 90.4%
residual activity (CAMKK1 (human)): 93.8%
residual activity (JAK3 JH1 JH2 (human)): 96.6%
residual activity (PIM3 (human)): 74.6%
residual activity (PTK6 (human)): 77.2%
residual activity (EPHA4 (human)): 90.2%
residual activity (CDK1 CCNB1 (human)): 99.1%
residual activity (TEK (human)): 96.2%

C#Cc1cccc(Nc2ncnc3cc(OCCOC)c(OCCOC)cc23)c1
residual activity (FGFR2 (human)): 83.4%
residual activity (PAK1 (human)): 109%
residual activity (PDPK1 (human)): 83.8%
residual activity (NEK7 (human)): 97.4%
residual activity (STK24 (human)): 115%
residual activity (DSTYK (human)): 107%
residual activity (FGFR4 (human)): 93.3%
residual activity (ULK1 (human)): 113%
residual activity (WEE1 (human)): 95.2%
residual activity (ROCK2 (human)): 91%
residual activity (MST1R (human)): 93.6%
residual activity (OXSR1 (human)): 102%
residual activity (MAP3K5 (human)): 102%
residual activity (CLK4 (human)): 101%
residual activity (MAPK1 (human)): 116%
residual activity (MAP4K2 (human)): 105%
residual activity (RPS6KA5 KD2 (human)): 96.8%
residual activity (ROS1 (human)): 99.6%
residual activity (TAOK3 (human)): 106%
residual activity (ACVR1 (human)): 101%
residual activity (AKT1 (human)): 93.7%
residual activity (PRKD3 (human)): 86.5%
residual activity (TAOK2 (human)): 106%
residual activity (IKBKB (human)): 83.5%
residual activity (CHEK1 (human)): 95.1%
residual activity (ZAP70 (human)): 94.4%
residual activity (STK3 (human)): 94.9%
residual activity (CSNK2A1 (human)): 78.9%
residual activity (EPHA7 (human)): 69.8%
residual activity (CAMKK1 (human)): 98.7%
residual activity (JAK3 JH1 JH2 (human)): 91.3%
residual activity (PIM3 (human)): 81.4%
residual activity (PTK6 (human)): 85.9%
residual activity (CDK1 CCNB1 (human)): 97.2%
residual activity (TEK (human)): 94%

Clc1ccc(Nc2nnc(Cc3ccncc3)c3ccccc23)cc1
residual activity (FGFR2 (human)): 96%
residual activity (BTK (human)): 95.4%
residual activity (NEK4 (human)): 97.7%
residual activity (PAK1 (human)): 116%
residual activity (PDPK1 (human)): 88.3%
residual activity (NEK7 (human)): 96.8%
residual activity (STK24 (human)): 98.7%
residual activity (DSTYK (human)): 96.5%
residual activity (FGFR4 (human)): 95.8%
residual activity (ULK1 (human)): 107%
residual activity (WEE1 (human)): 109%
residual activity (ROCK2 (human)): 95.4%
residual activity (MST1R (human)): 91.6%
residual activity (OXSR1 (human)): 101%
residual activity (MAP3K5 (human)): 101%
residual activity (CLK4 (human)): 108%
residual activity (MAPK1 (human)): 87.6%
residual activity (MAPKAPK2 (human)): 98.8%
residual activity (MAP4K2 (human)): 107%
residual activity (HIPK1 (human)): 99.2%
residual activity (RPS6KA5 KD2 (human)): 85.5%
residual activity (ROS1 (human)): 94.7%
residual activity (TAOK3 (human)): 99.9%
residual activity (ACVR1 (human)): 96.1%
residual activity (AKT1 (human)): 103%
residual activity (PRKD3 (human)): 94.7%
residual activity (TAOK2 (human)): 85.4%
residual activity (IKBKB (human)): 85.6%
residual activity (CHEK1 (human)): 96.5%
residual activity (ZAP70 (human)): 96.6%
residual activity (STK3 (human)): 92.1%
residual activity (CSNK2A1 (human)): 114%
residual activity (EPHA7 (human)): 90.5%
residual activity (HIPK4 (human)): 95.9%
residual activity (CAMKK1 (human)): 97.2%
residual activity (JAK3 JH1 JH2 (human)): 92.1%
residual activity (PIM3 (human)): 98.9%
residual activity (EPHA4 (human)): 102%
residual activity (CDK1 CCNB1 (human)): 104%
residual activity (TEK (human)): 97.5%
